What was measured:
[1] = tested on: 3T3-L1 cells; assay: 3T3-L1 adipocyte differentiation (lipid content), alone or with rosiglitazone (BRL49653); format: cell-based, mouse; settings: 7 days of treatment; for lipid accumulation / differentiation of 3T3-L1 cells by the compound alone: 1e-10M to 1e-5M; for inhibition of adipocyte differentiation / lipid accumulation induced by rosiglitazone (BRL49653): in combination with rosiglitazone
Description: The mouse preadipocyte cell line 3T3-L1 has been extensively used to study adipocyte differentiation. Upon stimulation with differentiating agents, preadipocytes typically undergo one cell cycle expansion and then they are growth arrested and dramatically change their shape to become more rounded cells, loaded with lipids, in a fashion closely reflecting adipogenesis in vivo. In this well-known process of differentiation, peroxisome proliferator activated receptor gamma (PPARγ) and retinoid X receptor (RXR) play a key role. PPARγ binds as an obligatory heterodimer with RXR to specific responsive sequences in the promoter region of target genes. In the particular case of PPARγ/RXR heterodimers, both receptors can be activated via their specific ligands. As a consequence of such activation, adipocyte-specific genes are turned on (C/EBP, aP2, LPL, adipsin, etc) and adipocyte differentiation results. Because lipid accumulation is the endpoint of adipocyte differentiation, the quantification of lipids which have accumulated in cells upon treatment with the compound(s) of interest, will indicate the ability of that compound to trigger adipocyte differentiation. More importantly, the potency of that compound can be estimated as well based on the total amount of lipids accumulated. The amount of lipid measured at the end of the assay for each tested compound is here compared to that of Compound 73 at 0.1 μM, which is considered 100% (see FIG. 11A).
In the particular case of measuring the potential antagonistic activity of some compounds, the putative antagonist is combined together with an agonist (such as the PPARγ agonist BRL49653). Thus, the amount of lipids accumulated in response to BRL49653 (considered as 100% in this case), is decreased by the compound with antagonistic activity (see FIG. 11B).
Materials and Methods: Mouse embryo fibroblast 3T3-L1 cell line, from American Type Culture Collection (ATCC), was used as a model of adipocyte differentiation.
Growing medium (GM): DME Dulbecco's modified Eagle's medium containing 4500 mg/L glucose; 4 mM L-glutamine; 10 U/ml Pen-G; 10 mcg/ml and 10% Calf Serum (CS).
Differentiation medium (DM): DME Dulbecco's modified Eagle's medium containing 4500 mg/L glucose; 4 mM L-glutamine; 10 U/ml Pen-G; 10 mcg/ml and 10% Fetal Calf Serum (FCS). Cells are always kept at 10% CO2.
Cells were seeded at 3,000 cells/well in 96 well-tissue culture plates in growing medium.
Two days after reaching confluence, cells were treated with the different compounds of interest in DM (Day 0). Drugs were replaced every 2–3 days in DM. Differentiation was assessed after 7 days of treatment, by measuring the lipid content in the cells, using the Triglyceride (INFINITY) reagent (Quantitative assay). • Controls: All cells, including control cells (vehicle), are treated with the same volume of dimethyl sulfoxide (DMSO) never exceeding 0.1% final solvent concentration. As a positive control for differentiation, cells were treated with 10 μg insulin per ml and 2.5 μM dexamethasone (Ins/Dex).

[2] = target: T1, AKT1/PKBα (Homo sapiens, UniProt P31749); assay: In vitro assay for AKT1/PKBα kinase activity inhibition; format: biochemical; settings: at 5 μM, pre-incubation 10 minute at 30° C.
T1 construct: purchased Upstate 14-276
Protocol: The assay was performed using a similar approach as described by Standaert, Mary L., et al. J. Biol. Chem. 1999, 274, 25308–25316; and Aman, M. J. et al, J. Biol. Chem. 1998, 273, 33922–33928. The assay was performed using purified recombinant His-tagged AKT1/PKBα enzyme purchased from Upstate catalog # 14-276 following the manufacturer instruction. The assay is to measure phosphotransferase activity in purified His-tagged AKT1/PKBα. The purified enzyme is used to transfer the γ phosphate of [γ-32P]-ATP to a specific substrate, AKT/GSK peptide [RPRAATA] (upstate Catalog # 12-340). The phosphorylated substrate is then separated from the residual [γ-32P]ATP by using P81 phosphocellulose paper accompanied with extensive washing followed by quantitation using scintillation counter. The assay is linear for incubation times for up to 30 minutes and incorporation of up to 20% of total ATP. This enzyme assay is rapid, convenient and specific for AKT/PKB.
For testing the effect of Compound 2 on the AKT kinase activity, 0.3 μg AKT was pre-incubated with 1 μl of different Compound 2 stock concentration to give the final indicated concentration in total volume of 20 μl reaction buffer. As control 0.3 μg AKT was incubated with 1 μl Vehicle or alone in total volume of 20 μl reaction buffer. After a 10 minute incubation at 30° C., the kinase reaction was carried out according to the instruction of the manufacturer.

[3] = target: T2, PPARγ (Homo sapiens, UniProt P37231); assay: In vitro transactivation assay in CV-1 cells, antagonism of BRL49653-induced Gal-PPARγ activation; format: cell-based; settings: with 1 μM agonist BRL49653, dose-dependent
T2 construct: expressed in transfected cells; host or cells: CV-1 (green monkey kidney) cells, transient calcium phosphate transfection
T2 sequence (P37231 238-503 limits assumed): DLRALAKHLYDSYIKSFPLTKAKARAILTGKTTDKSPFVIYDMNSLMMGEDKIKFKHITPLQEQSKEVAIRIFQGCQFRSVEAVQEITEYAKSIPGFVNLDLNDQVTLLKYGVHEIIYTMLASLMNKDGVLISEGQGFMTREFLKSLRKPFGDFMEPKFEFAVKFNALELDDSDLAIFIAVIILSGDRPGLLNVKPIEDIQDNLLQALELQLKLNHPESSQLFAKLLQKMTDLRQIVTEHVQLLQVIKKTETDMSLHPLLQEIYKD
Description: (§1) In vitro screens such as the transactivation assay can be used to measure the ability of a compound to inhibit a nuclear receptor regulating lipid or carbohydrate uptake, synthesis or metabolism. In the assay described herein compounds can be identified that can inhibit activation of the following nuclear receptors: LXR, PPARα, PPARγ and FXR. This activity can be useful to treat lipid disorders such as hypercholesteremia and obesity.
(§2) Cell line: Kidney Green Monkey CV-1 cells.
(§3) Growing culturing medium: Dulbecco's modified Eagle's medium (DMEM) supplememnted with 10% fetal calf serum (FCS).
(§4) Procedure: CV-1 cells were plated in 48 well-plate culture plates, at a density of 10,000 cells/well, 24 h prior to transfection. One to three hours before transfection, cells were fed with fresh medium. A modified calcium phosphate precipitation procedure was used for transient transfection (Pfahl, M. et al., 1990, Methods in Enzymology 189: 256).
(§5) Typically, 40 ng reporter plasmid and 20 ng of each receptor expression vector were mixed, together with 10 ng of β-galactosidase control plasmid (pCH110, Pharmacia, Piscataway, N.J.) and Bluescript plasmid to obtain a total of 400 ng DNA per well. To this mixture 1 μl of 2.5M CaCl2 and 10 μl of BBS buffer, pH 6.95, were added afterward. […]

[4] = tested on: LXR; assay: In vitro transactivation assay in CV-1 cells, antagonism of T0901317-induced Gal-LXR activation; format: cell-based; settings: with 1 μM agonist T0901317
Description: as §1, §2, §3, §4, §5

T1 sequence (P31749 whole entry): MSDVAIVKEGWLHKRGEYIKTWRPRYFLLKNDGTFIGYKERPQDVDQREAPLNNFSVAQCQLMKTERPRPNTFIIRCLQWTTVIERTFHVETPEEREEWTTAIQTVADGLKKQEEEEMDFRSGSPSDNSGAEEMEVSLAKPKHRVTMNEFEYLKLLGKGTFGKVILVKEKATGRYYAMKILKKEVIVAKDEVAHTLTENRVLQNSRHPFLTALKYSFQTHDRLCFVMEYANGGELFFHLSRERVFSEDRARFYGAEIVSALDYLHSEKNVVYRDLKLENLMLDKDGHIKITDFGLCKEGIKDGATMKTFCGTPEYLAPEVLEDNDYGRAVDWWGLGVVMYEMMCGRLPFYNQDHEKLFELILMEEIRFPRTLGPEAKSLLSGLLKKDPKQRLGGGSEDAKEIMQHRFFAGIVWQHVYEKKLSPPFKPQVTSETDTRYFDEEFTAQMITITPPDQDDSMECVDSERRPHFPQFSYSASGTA

Row | Compound | lipid accumulation / differentiation of 3T3-L1 cells by the compound alone [1] | inhibition of adipocyte differentiation / lipid accumulation induced by rosiglitazone (BRL49653) [1] | inhibition of AKT activity compared to Control or Vehicle [2] | also measured
1 | COc1ccc(/C=C2\SC(=S)N(CC(=O)O)C2=O)cc1-c1cc2c(cc1C)C(C)(C)CCC2(C)C [Compound 1, {5-[4-Methoxy-3-(3,5,5,8,8-pentamethyl-5,6,7,8-tetrahydro-naphthalen-2-yl)-benzylidene]-4-oxo-2-thioxo-thiazolidin-3-yl}-acetic acid] | lacked that ability | potently inhibited | – | –
2 | Cc1cc2c(cc1-c1cc(/C=C3\SC(=S)N(CC(=O)O)C3=O)ccc1OC(F)(F)F)C(C)(C)CCC2(C)C [Compound 2, {5-[4-Trifluoromethoxy-3-(3,5,5,8,8-pentamethyl-5,6,7,8-tetrahydronaphthalen-2-yl)-benzylidene]-4-oxo-2-thioxo-thiazolidin-3-yl}-acetic acid] | lacked that ability | potently inhibited | showed inhibition | –
3 | COc1ncc(/C=C2\SC(=S)N(CC(=O)O)C2=O)cc1-c1cc2c(cc1C)C(C)(C)CCC2(C)C [Compound 3, {5-[6-Methoxy-5-(3,5,5,8,8-pentamethyl-5,6,7,8-tetrahydro-naphthalen-2-yl)-pyridin-3-ylmethylene]-4-oxo-2-thioxo-thiazolidin-3-yl}-acetic acid] | – | – | showed inhibition | –
4 | COc1ccc(/C=C2\SC(=O)N(CCc3ccccn3)C2=O)cc1-c1cc2c(cc1C)C(C)(C)CCC2(C)C [Compound 6, 5-[4-Methoxy-3-(3,5,5,8,8-pentamethyl-5,6,7,8-tetrahydro-naphthalen-2-yl)-benzylidene]-3-(2-pyridin-2-yl-ethyl)-thiazolidine-2,4-dione] | – | – | – | melting point: 170 to 171 °C
5 | COc1cc2c(cc1-c1c(/C=C3\SC(=S)N(CC(=O)O)C3=O)cc(-c3ccccc3)cc1OC)C(C)(C)CCC2(C)C [Compound 8, {5-[5-Phenyl-3-methoxy-2-(3-methoxy-5,5,8,8-tetramethyl-5,6,7,8-tetrahydro-naphthalen-2-yl)-benzylidene]-4-oxo-2-thioxo-thiazolidin-3-yl}-acetic acid] | lacked the ability to differentiate 3T3-L1 cells by themselves | strongly inhibited | – | inhibition at 10 µM [3]: 80 to 90%; antagonism of T0901317-induced LXR activation (in words) [4]: only antagonize the activation activity of BRL49653 for PPARγ
6 | CN(C)c1ccc(/C=C2\SC(=S)N(CC(=O)O)C2=O)cc1-c1cc2c(cc1N(C)C)C(C)(C)CCC2(C)C [Compound 10, {5-[4-Dimethylamino-3-(3-dimethylamino-5,5,8,8-tetramethyl-5,6,7,8-tetrahydro-naphthalen-2-yl)-benzylidene]-4-oxo-2-thioxo-thiazolidin-3-yl}-acetic acid] | – | – | showed inhibition | –
7 | CCOc1ccc(-c2ccc(OC)c(C(C)(C)C)c2)cc1/C=C1\SC(=S)N(CC(=O)O)C1=O [Compound 67] | – | – | showed inhibition | –
8 | COc1ccc(/C=C2\SC(=S)NC2=O)cc1-c1cc2c(cc1C)C(C)(C)CCC2(C)C [Compound 71, reference compound] | induced lipid accumulation | – | – | –
9 | COc1cc2c(cc1-c1c(/C=C3\SC(=S)N(CC(=O)O)C3=O)cc(-c3ccccc3)cc1OC)C(C)(C)CCC2(C)C [Compound 72, reference compound] | induced lipid accumulation | – | – | –

Reference: patent US7071218B2, “N-substituted heterocycles for the treatment of hypercholesteremia, dyslipidemia and other metabolic disorders; cancer, and other diseases” (Incyte San Diego Incorporated, priority 2001, dated 2006)
